Measurements from the supplement of paper PMC10307832.

Experiments:
Assay in all cases: relative viability (nuclei count vs DMSO), 5 days (fraction); higher = more cells survive
CUDC-101 + Trametinib = compound: C#Cc1cccc(Nc2ncnc3cc(OC)c(OCCCCCCC(=O)NO)cc23)c1 [CUDC-101] + CC(=O)Nc1cccc(-n2c(=O)n(C3CC3)c(=O)c3c(Nc4ccc(I)cc4F)n(C)c(=O)c(C)c32)c1 [Trametinib] (partner 0.02 µM)
Procedure, shortened: (§1)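 For relative viability, nuclei counts in treated wells were divided by those in vehicle wells. Lung cancer cell lines had been pin-tool dosed in 1536-well plates the day after seeding and cultured for 5 days, then fixed and stained in one step (final 0.05% Triton X-100, 1% formaldehyde, 1 ug/ml Hoechst) and imaged at 4×. Doses were one drug alone or a fixed anchor-drug dose plus five library-drug doses (not always all listed) in √10 steps, and values are duplicate-plate medians.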

CUDC-101 + Foretinib = compound: C#Cc1cccc(Nc2ncnc3cc(OC)c(OCCCCCCC(=O)NO)cc23)c1 [CUDC-101] + COc1cc2c(Oc3ccc(NC(=O)C4(C(=O)Nc5ccc(F)cc5)CC4)cc3F)ccnc2cc1OCCCN1CCOCC1 [Foretinib] (partner 0.25 µM)
Procedure, shortened: as §1

NVP-TAE684 + Phenformin = compound: COc1cc(N2CCC(N3CCN(C)CC3)CC2)ccc1Nc1ncc(Cl)c(Nc2ccccc2S(=O)(=O)C(C)C)n1 [NVP-TAE684] + N=C(N)NC(=N)NCCc1ccccc1 [Phenformin] (partner 250 µM)
Procedure, shortened: as §1

Vandetanib + Crizotinib = compound: COc1cc2/c(=N/c3ccc(Br)cc3F)nc[nH]c2cc1OCC1CCN(C)CC1 [Vandetanib] + C[C@@H](Oc1cc(-c2cnn(C3CCNCC3)c2)cnc1N)c1c(Cl)ccc(F)c1Cl [Crizotinib] (partner 1 µM)
Procedure, shortened: as §1

Row | Cell Line | relative viability (CUDC-101 + Trametinib; first compound 0.01 µM) | relative viability (CUDC-101 + Trametinib; first compound 0.03162 µM) | relative viability (CUDC-101 + Trametinib; first compound 0.1 µM) | relative viability (CUDC-101 + Trametinib; first compound 0.3162 µM) | relative viability (CUDC-101 + Trametinib; first compound 1 µM) | relative viability (CUDC-101 + Foretinib; first compound 0.01 µM) | relative viability (CUDC-101 + Foretinib; first compound 0.03162 µM) | relative viability (CUDC-101 + Foretinib; first compound 0.1 µM) | relative viability (CUDC-101 + Foretinib; first compound 0.3162 µM) | relative viability (CUDC-101 + Foretinib; first compound 1 µM) | relative viability (NVP-TAE684 + Phenformin; first compound 0.2 µM) | relative viability (NVP-TAE684 + Phenformin; first compound 0.6325 µM) | relative viability (NVP-TAE684 + Phenformin; first compound 2 µM) | relative viability (Vandetanib + Crizotinib; first compound 0.02 µM) | relative viability (Vandetanib + Crizotinib; first compound 0.06325 µM) | relative viability (Vandetanib + Crizotinib; first compound 0.2 µM) | relative viability (Vandetanib + Crizotinib; first compound 0.6325 µM) | relative viability (Vandetanib + Crizotinib; first compound 2 µM)
1 | NCI-H1975 | 0.38 | 0.322 | 0.347 | 0.692 | 0.319 | 0.856 | 1.03 | 0.99 | 1.04 | 0.808 | 0.422 | 0.367 | 0.24 | 0.887 | 0.943 | 0.922 | 0.994 | 0.852
2 | PC-3 [JPC-3] | 0.608 | 0.519 | 0.494 | 0.455 | 0.323 | 1.07 | 1 | 0.882 | 0.539 | 0.294 | 0.477 | 0.436 | 0.454 | 0.96 | 0.943 | 0.935 | 0.811 | 0.52
3 | EPLC-272H | 0.279 | 0.258 | 0.26 | 0.265 | 0.229 | 0.664 | 0.723 | 0.646 | 0.341 | 0.585 | 0.282 | 0.267 | 0.146 | 1.01 | 0.732 | 0.961 | 0.845 | 0.917
